Experimental data from PubChem BioAssay AID1963848 (Molecular Pharmacology Branch, DTP, NCI, 2024).
pIC50: −log10 of the molar value.

Test system: 379773-124-R-J2-PDC spheroid viability
Test: Anticancer human tumor 379773-124-R-J2-PDC patient-derived endometrial carcinoma cell line growth inhibition [POLQ]
Settings: spheroids with HUVEC and MSC; for pIC50: curve of first compound; for viability, T/C: stronger effect = lower value; active means viability on the fitted dose curve at most 10% of control; inactive means the rest
Procedure, shortened: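 PDC + HUVEC + MSC complex spheroids; POLQ inhibitors ± partner drugs; top conc. at/near clinical Cmax, else 10 microM (SN-38 1 microM), half-log dilutions; 37 degrees C, 5% CO2.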

[1] = second compound 0.0316 µM, first compound 0.0316 µM
[2] = second compound 0.0316 µM, first compound 0.1 µM
[3] = second compound 0.1 µM, first compound 0.0316 µM
[4] = second compound 0.1 µM, first compound 0.1 µM
[5] = second compound 0.316 µM, first compound 0.0316 µM
[6] = second compound 0.316 µM, first compound 0.1 µM
[7] = second compound 1 µM, first compound 0.0316 µM
[8] = second compound 1 µM, first compound 0.1 µM
[9] = second compound 3.16 µM, first compound 0.0316 µM
[10] = second compound 3.16 µM, first compound 0.1 µM
[11] = second compound 10 µM, first compound 0.0316 µM
[12] = second compound 10 µM, first compound 0.1 µM
[13] = second compound 0.0316 µM, first compound 0.316 µM
[14] = second compound 0.0316 µM, first compound 1 µM
[15] = second compound 0.0316 µM, first compound 3.16 µM
[16] = second compound 0.0316 µM, first compound 10 µM
[17] = second compound 0.1 µM, first compound 0.316 µM
[18] = second compound 0.1 µM, first compound 1 µM
[19] = second compound 0.1 µM, first compound 3.16 µM
[20] = second compound 0.1 µM, first compound 10 µM
[21] = second compound 0.316 µM, first compound 0.316 µM
[22] = second compound 0.316 µM, first compound 1 µM
[23] = second compound 0.316 µM, first compound 3.16 µM
[24] = second compound 0.316 µM, first compound 10 µM
[25] = second compound 1 µM, first compound 0.316 µM
[26] = second compound 1 µM, first compound 1 µM
[27] = second compound 1 µM, first compound 3.16 µM
[28] = second compound 1 µM, first compound 10 µM
[29] = second compound 3.16 µM, first compound 0.316 µM
[30] = second compound 3.16 µM, first compound 1 µM
[31] = second compound 3.16 µM, first compound 3.16 µM
[32] = second compound 3.16 µM, first compound 10 µM
[33] = second compound 10 µM, first compound 0.316 µM
[34] = second compound 10 µM, first compound 1 µM
[35] = second compound 10 µM, first compound 3.16 µM
[36] = second compound 10 µM, first compound 10 µM
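Further: spheroids exposed to drugs for seven days before readout.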
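Wherever viability, T/C is given: percent viability relative to DMSO vehicle control taken as 100%.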

CC[C@@]1(O)C(=O)OCc2c1cc1n(c2=O)Cc2cc3c(CN(C)C)c(O)ccc3nc2-1 + COC1C(OC(N)=O)C(O)C(Oc2ccc3c(O)c(NC(=O)c4ccc(O)c(CC=C(C)C)c4)c(=O)oc3c2C)OC1(C)C
7.49: pIC50 (second compound 0.0316 µM)
7.68: pIC50 (second compound 10 µM)
7.72: pIC50 (second compound 0.1 µM) | pIC50 (second compound 0.316 µM)
active: viability, T/C [8] 9.89%
inactive: viability, T/C (second compound 0.0316 µM, first compound 0.000316 µM) 86.5% | viability, T/C (second compound 0.0316 µM, first compound 0.001 µM) 79.3% | viability, T/C (second compound 0.0316 µM, first compound 0.00316 µM) 85.7% | viability, T/C (second compound 0.0316 µM, first compound 0.01 µM) 73.5% | viability, T/C [1] 51.2% | viability, T/C [2] 10.9% | viability, T/C (second compound 0.1 µM, first compound 0.000316 µM) 73.3% | viability, T/C (second compound 0.1 µM, first compound 0.001 µM) 77.8% | viability, T/C (second compound 0.1 µM, first compound 0.00316 µM) 74.1% | viability, T/C (second compound 0.1 µM, first compound 0.01 µM) 71.2% | viability, T/C [3] 33.9% | viability, T/C [4] 14.1% | viability, T/C (second compound 0.316 µM, first compound 0.000316 µM) 85.7% | viability, T/C (second compound 0.316 µM, first compound 0.001 µM) 78.6% | viability, T/C (second compound 0.316 µM, first compound 0.00316 µM) 78.2% | viability, T/C (second compound 0.316 µM, first compound 0.01 µM) 71.2% | viability, T/C [5] 33.6% | viability, T/C [6] 12.1% | viability, T/C (second compound 1 µM, first compound 0.000316 µM) 86.4% | viability, T/C (second compound 1 µM, first compound 0.001 µM) 94.9% | viability, T/C (second compound 1 µM, first compound 0.00316 µM) 72.6% | viability, T/C (second compound 1 µM, first compound 0.01 µM) 68% | viability, T/C [7] 32.2% | viability, T/C (second compound 3.16 µM, first compound 0.000316 µM) 76.9% | viability, T/C (second compound 3.16 µM, first compound 0.001 µM) 71.5% | viability, T/C (second compound 3.16 µM, first compound 0.00316 µM) 83.1% | viability, T/C (second compound 3.16 µM, first compound 0.01 µM) 65% | viability, T/C [9] 42.4% | viability, T/C [10] 11.6% | viability, T/C (second compound 10 µM, first compound 0.000316 µM) 72.9% | viability, T/C (second compound 10 µM, first compound 0.001 µM) 73.3% | viability, T/C (second compound 10 µM, first compound 0.00316 µM) 82.5% | viability, T/C (second compound 10 µM, first compound 0.01 µM) 69.6% | viability, T/C [11] 38.8% | viability, T/C [12] 12.5%
7.77: pIC50 (second compound 1 µM)
7.66: pIC50 (second compound 3.16 µM)

CNCc1ccc(-c2[nH]c3cc(F)cc4c3c2CCNC4=O)cc1 + COC1C(OC(N)=O)C(O)C(Oc2ccc3c(O)c(NC(=O)c4ccc(O)c(CC=C(C)C)c4)c(=O)oc3c2C)OC1(C)C
< 5.00: pIC50 (second compound 0.0316 µM) | pIC50 (second compound 0.1 µM) | pIC50 (second compound 0.316 µM) | pIC50 (second compound 1 µM) | pIC50 (second compound 3.16 µM) | pIC50 (second compound 10 µM)
inactive: viability, T/C [1] 104% | viability, T/C [2] 86.1% | viability, T/C [13] 84.5% | viability, T/C [14] 74.5% | viability, T/C [15] 82.5% | viability, T/C [16] 78.1% | viability, T/C [3] 102% | viability, T/C [4] 86.7% | viability, T/C [17] 90.5% | viability, T/C [18] 88.2% | viability, T/C [19] 87.8% | viability, T/C [20] 82.9% | viability, T/C [5] 95.5% | viability, T/C [6] 96.8% | viability, T/C [21] 87.8% | viability, T/C [22] 93.2% | viability, T/C [23] 77.2% | viability, T/C [24] 78.4% | viability, T/C [7] 91.8% | viability, T/C [8] 98.2% | viability, T/C [25] 78.1% | viability, T/C [26] 86.1% | viability, T/C [27] 82.6% | viability, T/C [28] 67.3% | viability, T/C [9] 79.8% | viability, T/C [10] 79.9% | viability, T/C [29] 76.2% | viability, T/C [30] 85.1% | viability, T/C [31] 80.1% | viability, T/C [32] 78.3% | viability, T/C [11] 80.3% | viability, T/C [12] 81.7% | viability, T/C [33] 96.5% | viability, T/C [34] 75.5% | viability, T/C [35] 76.7% | viability, T/C [36] 65.7%

CCc1cc2c(N3CCc4c(cc(Cn5ccnc5)cc4-c4cn(C)nc4C(F)(F)F)C3=O)cc(C)nc2c(OC)n1 + Nc1ccc(C#CCN(C(=O)Cc2ncc(C(F)(F)F)cc2C(F)(F)F)c2ccc(F)cc2)nn1
inactive: viability, T/C [1] 75.7% | viability, T/C [2] 78.4% | viability, T/C [13] 61.9% | viability, T/C [14] 60.9% | viability, T/C [15] 64.3% | viability, T/C [16] 48.9% | viability, T/C [3] 66.9% | viability, T/C [4] 81.1% | viability, T/C [17] 65.3% | viability, T/C [18] 62.2% | viability, T/C [19] 55.7% | viability, T/C [20] 46.4% | viability, T/C [5] 74.3% | viability, T/C [6] 73% | viability, T/C [21] 66.6% | viability, T/C [22] 62.3% | viability, T/C [23] 52.1% | viability, T/C [24] 44.7% | viability, T/C [7] 77.5% | viability, T/C [8] 68.8% | viability, T/C [25] 66.2% | viability, T/C [26] 61.6% | viability, T/C [27] 52.4% | viability, T/C [28] 50.6% | viability, T/C [9] 82.2% | viability, T/C [10] 67.6% | viability, T/C [29] 67.2% | viability, T/C [30] 64.7% | viability, T/C [31] 57.9% | viability, T/C [32] 51.8% | viability, T/C [11] 74.5% | viability, T/C [12] 68.2% | viability, T/C [33] 70.7% | viability, T/C [34] 56% | viability, T/C [35] 56.4% | viability, T/C [36] 51.8%
5.01: pIC50 (second compound 1 µM)
< 5.00: pIC50 (second compound 0.0316 µM) | pIC50 (second compound 3.16 µM) | pIC50 (second compound 10 µM)
5.19: pIC50 (second compound 0.1 µM)
5.32: pIC50 (second compound 0.316 µM)
